{
  "source": "patent US20150335738A1",
  "about": "(priority 2012, published 2015)",
  "system": "human SIgA in faeces",
  "type": "in vivo",
  "data": [
    {"smiles": "CC1=C(/C=C/C(C)=C/C=C/C(C)=C/C=C/C=C(C)/C=C/C=C(C)/C=C/C2=C(C)CCCC2(C)C)C(C)(C)CCC1", "note": "[Beta-carotene, beta-carotene]", "values": [
      {"measurement": "SIgA faeces, 3 days before exercise", "setting": "3 days before exercise", "value": "88 micrograms per 100 g faeces"},
      {"measurement": "Recovery in faeces", "setting": "Reference (before exercise) = 100%", "value": 13, "unit": "%"},
      {"measurement": "SIgA faeces, day 1 after exercise", "setting": "day 1 after exercise", "value": "8 micrograms per 100 g faeces"},
      {"measurement": "SIgA faeces, day 6 after exercise", "setting": "day 6 after exercise", "value": "11 micrograms per 100 g faeces"}
    ]}
  ]
}
